Laboratory results reported in patent publication US20170209447A1, “Use of PNP Inhibitor to Treat Relapse of Malignancy after Hematopoietic Stem Cell Transplant” (Nitor Therapeutics, priority 2014, published 2017).

Legend:
Format in all cases: cell-based
human TLR9 = biological target: T1, human TLR9 (Homo sapiens, UniProt Q9NR96); experiment: TLR ligand screening: NF-κB SEAP reporter in HEK293 cells expressing TLR9; details: one concentration: NTR001 10 uM, Inosine 100 uM, triplicate, FIG. 2
T1 construct: expressed in transfected cells; host or cells: HEK293
T1 sequence (Q9NR96 26-1032): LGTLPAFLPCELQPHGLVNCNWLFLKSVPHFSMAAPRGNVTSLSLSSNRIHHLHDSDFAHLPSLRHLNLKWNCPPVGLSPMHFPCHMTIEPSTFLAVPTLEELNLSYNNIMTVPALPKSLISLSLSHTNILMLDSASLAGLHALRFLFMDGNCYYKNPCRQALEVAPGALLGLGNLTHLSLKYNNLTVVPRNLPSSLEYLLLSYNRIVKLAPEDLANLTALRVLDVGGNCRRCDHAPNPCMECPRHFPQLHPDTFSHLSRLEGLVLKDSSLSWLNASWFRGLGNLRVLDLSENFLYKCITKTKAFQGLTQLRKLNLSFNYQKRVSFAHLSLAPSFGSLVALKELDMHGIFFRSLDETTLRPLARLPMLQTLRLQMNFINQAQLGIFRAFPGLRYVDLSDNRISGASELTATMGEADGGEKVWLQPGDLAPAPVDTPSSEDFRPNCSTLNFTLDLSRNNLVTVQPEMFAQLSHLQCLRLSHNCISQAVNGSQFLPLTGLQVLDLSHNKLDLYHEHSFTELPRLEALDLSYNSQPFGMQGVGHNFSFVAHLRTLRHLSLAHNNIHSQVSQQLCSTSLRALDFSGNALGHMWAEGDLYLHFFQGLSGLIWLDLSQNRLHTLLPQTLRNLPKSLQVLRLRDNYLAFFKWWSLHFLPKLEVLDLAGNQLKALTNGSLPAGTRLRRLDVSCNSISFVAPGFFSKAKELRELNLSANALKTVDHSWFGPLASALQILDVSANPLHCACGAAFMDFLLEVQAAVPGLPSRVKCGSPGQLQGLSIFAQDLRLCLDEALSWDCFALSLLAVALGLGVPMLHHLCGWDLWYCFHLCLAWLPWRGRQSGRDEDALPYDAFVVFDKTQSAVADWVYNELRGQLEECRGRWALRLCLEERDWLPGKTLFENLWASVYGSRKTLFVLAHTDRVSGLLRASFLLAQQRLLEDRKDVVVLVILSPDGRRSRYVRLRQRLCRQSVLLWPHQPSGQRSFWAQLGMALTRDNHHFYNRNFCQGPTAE
Experimental: (§1) Toll-Like Receptor (TLR) Ligand Screening: In-vitro Activity of the PNPi, Guanosine and Inosine on Seven Different Human TLRs (TLR2, 3, 4, 5, 7, 8 and 9) as a Potential Agonist.
(§2) Method: TLR stimulation is tested by assessing NF-KB activation in HEK293 cells expressing a given TLR. The Secreted Embryonic Alkaline Phosphatase (SEAP) reporter is under the control of a promoter inducible by the transcription factor NF-κB.
(§3) This reporter gene allows the monitoring of signaling through the TLR, based on the activation of NF-κB. The compounds are evaluated at one concentration and compared to control ligands. This step is performed in triplicate.

human TLR4 = biological target: T2, human TLR4 (Homo sapiens, UniProt O00206); experiment: TLR ligand screening: NF-κB SEAP reporter in HEK293 cells expressing TLR4; details: one concentration: Guanosine 100 uM, NTR001 10 uM, Inosine 100 uM; HEK293; triplicate; FIG. 2
T2 construct: expressed in transfected cells; host or cells: HEK293
Experimental: as §1, §2, §3

human TLR5 = biological target: T3, human TLR5 (Homo sapiens, UniProt O60602); experiment: TLR ligand screening: NF-κB SEAP reporter in HEK293 cells expressing TLR5; details: one concentration: NTR001 10 uM, Inosine 100 uM, triplicate, FIG. 2
T3 construct: expressed in transfected cells; host or cells: HEK293
Experimental: as §1, §2, §3

human TLR2 = biological target: T4, human TLR2 (Homo sapiens, UniProt O60603); experiment: TLR ligand screening: NF-κB SEAP reporter in HEK293 cells expressing TLR2; details: one concentration: Guanosine 100 uM, NTR001 10 uM, Inosine 100 uM; HEK293; triplicate; FIG. 2
T4 construct: expressed in transfected cells; host or cells: HEK293
Experimental: as §1, §2, §3

human TLR8 = biological target: T5, human TLR8 (Homo sapiens, UniProt Q9NR97); experiment: TLR ligand screening: NF-κB SEAP reporter in HEK293 cells expressing TLR8; details: one concentration: NTR001 10 uM, Inosine 100 uM, triplicate, FIG. 2
T5 construct: expressed in transfected cells; host or cells: HEK293
T5 sequence (Q9NR97 27-1041): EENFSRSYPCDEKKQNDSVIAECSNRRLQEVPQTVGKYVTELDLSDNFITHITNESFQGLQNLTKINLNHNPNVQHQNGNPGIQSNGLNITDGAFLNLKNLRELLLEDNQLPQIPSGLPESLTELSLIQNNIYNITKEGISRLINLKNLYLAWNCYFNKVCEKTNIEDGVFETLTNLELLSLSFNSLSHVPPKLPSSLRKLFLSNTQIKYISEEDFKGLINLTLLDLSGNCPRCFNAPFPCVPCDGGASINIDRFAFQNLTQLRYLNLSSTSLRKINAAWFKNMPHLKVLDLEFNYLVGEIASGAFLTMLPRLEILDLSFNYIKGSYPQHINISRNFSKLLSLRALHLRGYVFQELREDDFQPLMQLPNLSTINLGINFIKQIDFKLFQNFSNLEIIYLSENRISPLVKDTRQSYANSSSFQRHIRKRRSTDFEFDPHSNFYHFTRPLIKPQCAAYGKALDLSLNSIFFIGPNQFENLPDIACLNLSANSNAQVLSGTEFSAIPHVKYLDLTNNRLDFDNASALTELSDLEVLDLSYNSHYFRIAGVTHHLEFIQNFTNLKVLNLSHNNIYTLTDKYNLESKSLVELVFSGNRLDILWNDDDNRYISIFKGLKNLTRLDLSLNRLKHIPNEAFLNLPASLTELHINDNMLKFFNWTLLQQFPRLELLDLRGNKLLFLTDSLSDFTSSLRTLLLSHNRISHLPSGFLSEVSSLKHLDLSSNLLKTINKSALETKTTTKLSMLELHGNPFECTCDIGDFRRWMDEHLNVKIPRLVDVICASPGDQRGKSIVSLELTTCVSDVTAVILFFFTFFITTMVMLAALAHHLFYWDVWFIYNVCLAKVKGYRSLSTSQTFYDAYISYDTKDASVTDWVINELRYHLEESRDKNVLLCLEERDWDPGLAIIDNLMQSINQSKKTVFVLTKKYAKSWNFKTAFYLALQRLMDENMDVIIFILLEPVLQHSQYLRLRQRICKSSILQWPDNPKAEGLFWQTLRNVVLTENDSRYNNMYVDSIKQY
Experimental: as §1, §2, §3

T3 sequence (O60602 21-858): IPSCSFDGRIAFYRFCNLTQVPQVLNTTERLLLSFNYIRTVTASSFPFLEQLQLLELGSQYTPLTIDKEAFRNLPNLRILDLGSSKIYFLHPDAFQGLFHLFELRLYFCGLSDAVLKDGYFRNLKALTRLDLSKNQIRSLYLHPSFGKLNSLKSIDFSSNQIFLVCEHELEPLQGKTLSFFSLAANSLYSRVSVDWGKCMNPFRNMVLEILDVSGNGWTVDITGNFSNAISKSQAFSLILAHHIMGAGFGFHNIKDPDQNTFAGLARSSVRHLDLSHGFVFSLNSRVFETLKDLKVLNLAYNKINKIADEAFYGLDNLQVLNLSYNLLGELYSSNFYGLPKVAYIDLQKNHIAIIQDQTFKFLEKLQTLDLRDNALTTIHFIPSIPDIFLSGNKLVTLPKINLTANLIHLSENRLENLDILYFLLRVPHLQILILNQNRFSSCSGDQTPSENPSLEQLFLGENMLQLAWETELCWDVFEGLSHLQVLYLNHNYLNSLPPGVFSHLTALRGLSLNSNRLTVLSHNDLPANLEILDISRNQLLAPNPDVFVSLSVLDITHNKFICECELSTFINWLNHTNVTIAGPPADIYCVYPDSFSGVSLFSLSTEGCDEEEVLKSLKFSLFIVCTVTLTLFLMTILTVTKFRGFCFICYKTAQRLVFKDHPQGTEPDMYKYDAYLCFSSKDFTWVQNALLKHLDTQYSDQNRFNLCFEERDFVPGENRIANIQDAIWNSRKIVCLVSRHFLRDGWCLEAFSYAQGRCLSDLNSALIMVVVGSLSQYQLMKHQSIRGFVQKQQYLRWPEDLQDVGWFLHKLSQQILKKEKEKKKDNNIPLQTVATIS
T2 sequence (O00206 24-839): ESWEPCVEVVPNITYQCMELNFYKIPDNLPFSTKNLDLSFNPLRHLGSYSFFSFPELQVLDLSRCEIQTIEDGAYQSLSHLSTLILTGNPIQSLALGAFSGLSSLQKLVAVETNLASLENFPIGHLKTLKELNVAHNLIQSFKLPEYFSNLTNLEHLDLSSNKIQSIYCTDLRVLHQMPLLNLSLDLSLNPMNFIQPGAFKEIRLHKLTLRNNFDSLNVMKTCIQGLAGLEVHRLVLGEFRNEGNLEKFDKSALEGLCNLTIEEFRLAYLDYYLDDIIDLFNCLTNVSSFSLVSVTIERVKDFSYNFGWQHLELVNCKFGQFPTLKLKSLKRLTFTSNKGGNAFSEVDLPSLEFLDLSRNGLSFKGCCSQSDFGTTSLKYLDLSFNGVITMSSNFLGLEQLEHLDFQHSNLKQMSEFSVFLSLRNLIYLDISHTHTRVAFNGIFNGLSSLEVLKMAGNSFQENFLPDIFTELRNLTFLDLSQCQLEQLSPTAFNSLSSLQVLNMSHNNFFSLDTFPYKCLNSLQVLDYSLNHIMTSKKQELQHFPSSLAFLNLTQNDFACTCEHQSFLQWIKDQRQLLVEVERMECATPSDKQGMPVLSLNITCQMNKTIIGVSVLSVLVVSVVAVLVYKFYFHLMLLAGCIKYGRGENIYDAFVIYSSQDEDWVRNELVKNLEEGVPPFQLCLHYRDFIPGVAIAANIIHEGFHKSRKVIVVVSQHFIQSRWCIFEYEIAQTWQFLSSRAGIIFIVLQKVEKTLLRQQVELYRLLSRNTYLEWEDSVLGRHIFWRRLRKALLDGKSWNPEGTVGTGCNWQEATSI
T2 sequence (Q9Y6Y9 17-160 partner limits assumed): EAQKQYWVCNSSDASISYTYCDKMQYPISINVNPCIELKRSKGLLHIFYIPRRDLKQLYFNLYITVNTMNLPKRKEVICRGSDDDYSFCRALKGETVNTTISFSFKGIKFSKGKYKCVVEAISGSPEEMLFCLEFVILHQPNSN
T4 sequence (O60603 21-784): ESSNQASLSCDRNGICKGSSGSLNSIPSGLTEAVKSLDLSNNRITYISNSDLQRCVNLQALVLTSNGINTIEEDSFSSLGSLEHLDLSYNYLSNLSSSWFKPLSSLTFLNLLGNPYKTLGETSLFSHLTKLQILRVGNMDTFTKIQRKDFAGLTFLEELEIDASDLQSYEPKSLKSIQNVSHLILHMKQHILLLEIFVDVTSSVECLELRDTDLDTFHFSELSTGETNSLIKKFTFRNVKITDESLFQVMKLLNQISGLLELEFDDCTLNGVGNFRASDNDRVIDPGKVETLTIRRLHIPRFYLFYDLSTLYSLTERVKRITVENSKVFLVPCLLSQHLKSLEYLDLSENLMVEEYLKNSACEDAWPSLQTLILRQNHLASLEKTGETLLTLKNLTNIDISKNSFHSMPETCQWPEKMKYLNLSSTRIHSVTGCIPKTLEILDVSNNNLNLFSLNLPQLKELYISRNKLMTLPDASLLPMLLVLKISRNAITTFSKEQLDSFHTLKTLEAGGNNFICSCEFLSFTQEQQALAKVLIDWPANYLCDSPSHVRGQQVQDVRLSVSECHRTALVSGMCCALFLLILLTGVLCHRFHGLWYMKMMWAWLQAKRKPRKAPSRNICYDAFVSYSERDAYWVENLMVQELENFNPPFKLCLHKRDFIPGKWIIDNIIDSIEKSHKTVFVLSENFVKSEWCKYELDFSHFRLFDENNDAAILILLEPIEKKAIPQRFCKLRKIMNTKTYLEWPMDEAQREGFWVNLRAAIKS

O=c1[nH]cnc2c([C@@H]3N[C@H](CO)[C@@H](O)[C@H]3O)c[nH]c12 [NTR001, 7-[(2S,3S,4R,5R)-3,4-dihydroxy-5-(hydroxymethyl)-2-pyrrolidinyl]-1,5-dihyro-4-H-pyrrolo-[3,2-d]pyrimidin-4-one]
do not exhibit a stimulatory effect: stimulatory effect on human TLR9 (NF-κB activation) (human TLR9) | stimulatory effect on human TLR4 (NF-κB activation) (human TLR4) | stimulatory effect on human TLR5 (NF-κB activation) (human TLR5) | stimulatory effect on human TLR2 (NF-κB activation) (human TLR2) | stimulatory effect on human TLR8 (NF-κB activation) (human TLR8)

OC[C@H]1O[C@@H](n2cnc3c(O)ncnc32)[C@H](O)[C@@H]1O [Inosine, inosine]
do not exhibit a stimulatory effect: stimulatory effect on human TLR9 (NF-κB activation) (human TLR9) | stimulatory effect on human TLR4 (NF-κB activation) (human TLR4) | stimulatory effect on human TLR5 (NF-κB activation) (human TLR5) | stimulatory effect on human TLR2 (NF-κB activation) (human TLR2) | stimulatory effect on human TLR8 (NF-κB activation) (human TLR8)
